From article PMC12586182 (Frontiers in Oncology, 2025)
Entries after “also recorded” stand apart in the source; their conditions may differ.

Experiments:
CCF-STTG1 = assay: Cell viability assay (ATPlite); assay type: cell-based; conditions: Homo sapiens; CCF-STTG1 cell line, 72 hours incubation
Method: (§1) Intracellular ATP content was used as an indirect readout of cell number using the ATPlite 1Step bioluminescence assay (Revvity, Groningen, the Netherlands). Cells were seeded in 384-well plates at an optimized density to ensure unrestricted growth and maximal signal at the end of the experiment. After 24 hours of incubation, the starting cell number was determined by adding ATPlite to each well of a control plate and recording luminescence on an Envision multimode reader (Revvity, Waltham, MA, USA) ([4]). Compounds were diluted in DMSO in √10-fold steps from 10 mmol/L stocks to obtain 9-point dilution series. After further 31.6-fold dilution in 20 mmol/L HEPES (pH 7.4), the dilution series were added in duplicate to the cells in the 384-well plates to determine the effect of the compounds on cell viability. Vehicle-treated controls were included to determine maximal cell proliferation. The final DMSO concentration was 0.4% (v/v) in all wells. After incubation for an additional 72 hours, the ATP content was measured in each well using ATPlite. The luminescent signal in inhibitor-treated wells was normalized to vehicle-treated control wells to determine the percentage viability at each concentration. Cell doublings were determined by relating the cell number of vehicle-treated controls to the starting cell number for each cell line. The viability assay of a cell line was repeated when the cell doubling deviated > 2-fold from the historic doubling as determined by multiple independent experiments. The quality of the complete assay was determined by a parallel test with doxorubicin on two cell lines. IC50 values were calculated by fitting a four-parameter logistic model to the percentage viability values using IDBS XLfit5 (IDBS, Guildford, United Kingdom). All curves were visually inspected and submitted to an F-test as implemented in IDBS XLfit5. Curves with an F-value above 1.5 were invalidated and IC50 values were maximized at the highest concentration.

SW837 = assay: Cell viability assay (ATPlite); assay type: cell-based; conditions: Homo sapiens; SW837 cell line, 72 hours incubation
Method: as §1

KMS-11 = assay: Cell viability assay (ATPlite); assay type: cell-based; conditions: Homo sapiens; KMS-11 cell line, 72 hours incubation
Method: as §1

NCI-H2228 = assay: Cell viability assay (ATPlite); assay type: cell-based; conditions: Homo sapiens; NCI-H2228 cell line, 72 hours incubation
Method: as §1

Hs 766T = assay: Cell viability assay (ATPlite); assay type: cell-based; conditions: Homo sapiens, Hs766T; Hs 766T cell line, 72 hours incubation
Method: as §1

HT = assay: Cell viability assay (ATPlite); assay type: cell-based; conditions: Homo sapiens; HT cell line, 72 hours incubation
Method: as §1

NCC-IT = assay: Cell viability assay (ATPlite); assay type: cell-based; conditions: Homo sapiens, NCCIT; NCC-IT cell line, 72 hours incubation
Method: as §1

LC-2/ad = assay: Cell viability assay (ATPlite); assay type: cell-based; conditions: Homo sapiens; LC-2/ad cell line, 72 hours incubation
Method: as §1

UM-UC-3 = assay: Cell viability assay (ATPlite); assay type: cell-based; conditions: Homo sapiens, UMUC3; UM-UC-3 cell line, 72 hours incubation
Method: as §1

AsPC-1 = assay: Cell viability assay (ATPlite); assay type: cell-based; conditions: Homo sapiens, ASPC1; AsPC-1 cell line, 72 hours incubation
Method: as §1

CCRF-HSB-2 = assay: Cell viability assay (ATPlite); assay type: cell-based; conditions: Homo sapiens; CCRF-HSB-2 cell line, 72 hours incubation
Method: as §1

[1] = test system: panel of 160 human cancer cell lines; assay: Cancer cell panel profiling in cell viability assays (ATPlite); assay type: cell-based
Description: A panel of 160 cancer cell lines was used in this study. […]. Cell lines were purchased from the American Type Culture Collection (ATCC) (Manassas, VA, USA), the German Collection of Microorganisms and Cell Cultures (DSMZ) (Braunschweig, Germany), the RIKEN BioResource Research Center (Tsukuba, Ibaraki, Japan) or the Japanese Collection of Research Bioresources (JCRB) (Ibaraki City, Osaka, Japan). All cell lines were propagated in the cell culture media as indicated in Supplementary Table S1 . Cell viability assays were carried out within ten passages of the original vials. The authenticity of the ATCC and DSMZ cell lines has been confirmed by short tandem repeat analysis at both institutions. […]
Intracellular ATP content was used as an indirect readout of cell number using the ATPlite 1Step bioluminescence assay (Revvity, Groningen, the Netherlands). […] After 24 hours of incubation, the starting cell number was determined by adding ATPlite to each well of a control plate and recording luminescence on an Envision multimode reader (Revvity, Waltham, MA, USA) ([4]). […] After incubation for an additional 72 hours, the ATP content was measured in each well using ATPlite. […] Cell doublings were determined by relating the cell number of vehicle-treated controls to the starting cell number for each cell line. […]

activated B-RAF = activated B-RAF (Homo sapiens, UniProt P15056); assay: Surface plasmon resonance binding (Biacore 1S+)
Sequence of activated B-RAF (P15056 whole entry): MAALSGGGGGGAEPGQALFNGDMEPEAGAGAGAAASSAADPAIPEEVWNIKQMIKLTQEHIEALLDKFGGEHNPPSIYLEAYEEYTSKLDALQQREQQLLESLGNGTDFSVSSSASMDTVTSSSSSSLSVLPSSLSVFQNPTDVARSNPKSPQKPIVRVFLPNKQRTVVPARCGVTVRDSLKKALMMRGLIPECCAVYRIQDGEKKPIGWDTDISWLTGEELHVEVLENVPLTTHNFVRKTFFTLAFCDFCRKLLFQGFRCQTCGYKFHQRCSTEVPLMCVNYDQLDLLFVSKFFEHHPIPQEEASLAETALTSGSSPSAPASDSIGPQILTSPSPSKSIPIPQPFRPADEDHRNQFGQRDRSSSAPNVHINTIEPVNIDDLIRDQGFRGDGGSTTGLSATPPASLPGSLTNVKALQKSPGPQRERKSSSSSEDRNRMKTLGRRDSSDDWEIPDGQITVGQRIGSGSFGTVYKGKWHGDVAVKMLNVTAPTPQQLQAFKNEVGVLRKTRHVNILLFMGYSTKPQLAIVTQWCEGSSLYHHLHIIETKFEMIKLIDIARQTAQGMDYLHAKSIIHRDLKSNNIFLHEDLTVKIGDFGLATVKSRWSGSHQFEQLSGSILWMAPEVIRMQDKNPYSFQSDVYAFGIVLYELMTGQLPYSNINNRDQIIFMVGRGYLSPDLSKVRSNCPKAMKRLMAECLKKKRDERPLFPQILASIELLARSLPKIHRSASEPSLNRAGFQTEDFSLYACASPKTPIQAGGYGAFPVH

Compound `O=C(c1ccc(Oc2ccccc2)cc1Cl)c1c[nH]c2ncnc(N[C@@H]3CC[C@@H](CO)OC3)c12` [nemtabrutinib] has an IC50 (CCF-STTG1) of 16.7 µM, an IC50 (SW837) of 3.81 µM and an IC50 (KMS-11) of 4.65 µM. It also gave an IC50 (NCI-H2228) of 7.5 µM, an IC50 (Hs 766T) of 1.82 µM and an IC50 (HT) of over 31.6 µM. It also gave an IC50 (NCC-IT) of 4.62 µM, an IC50 (LC-2/ad) of 1.26 µM and an IC50 (UM-UC-3) of 5.35 µM. For the same compound, the IC50 (AsPC-1) was 3.83 µM, the IC50 (CCRF-HSB-2) was 0.37 µM and the “Extent of inhibition of viability” value ([1]; SU-DHL-6 and REC-1 cells, dose-response curves) was “almost complete inhibition of viability”. The “Sensitivity of BRAF-mutant versus BRAF wild-type cell lines” value ([1]; average over cell panel, ANOVA) was “three times higher; also recorded: three times more sensitive”, the “difference in affinity, MEK1 versus B-RAF” value (activated B-RAF; SPR K D B-RAF versus K D MEK1) was 120 fold and the “log (kd)” value (activated B-RAF; SPR, B-RAF) was -1.26. The “log(ka)” value (activated B-RAF; SPR, B-RAF) was 4.66 and the t1/2 (activated B-RAF; SPR, B-RAF) was 12.5 s.
